Measurements reported in patent US11986512B2, “Compositions and methods for cancer therapy” (Thetis Pharmaceuticals LLC, priority 2021, dated 2024).

Tested on: LLC cells
Assay: Lewis lung carcinoma (LLC) model, with and without anti-PD1 or cisplatin
Type: in vivo, C57BL/6J male mice
Conditions: P<0.05
Method: A representative compound of Formula IV, RvE1 magnesium dilysinate, was tested for efficacy in several mouse models of cancer, including the Panc2-H7 model of pancreatic cancer, the Lewis lung carcinoma (LLC) model, the MC38 model of colorectal cancer, and the B16F10 model of melanoma. These models are well established, highly tumorigenic syngeneic models in which murine cancer cell lines are injected subcutaneously (SC) into the dorsum of C57BL/6J mice. If left untreated, these tumors grow rapidly and lead to death or euthanasia, per protocol. As detailed below in Examples 1-9 and the accompanying figures, bis RvE1 Mg-di-lysinate (Compound 1) was unexpectedly effective as an anti-cancer agent in each of these model systems when administered in a less than daily (LTD) dosing regimen. […] Without being bound by any theory, the surprising efficacy of LTD dosing of resolvins in the cancer model systems described here may be the result of durable effects on the tumor microenvironment including changes in immune cell phenotype, vascularization, stromal phenotype, and antigen presentation, as well as durable effects on the T-cell compartment such as T-cell priming and increased tumor-infiltrating lymphocytes.
To expand our understanding of bis RvE1 Mg-di-lysinate as a cancer therapy that could be used in combination with other cancer therapies including immune checkpoint inhibitors, bis RvE1 Mg-di-lysinate monotherapy and in combination either anti-PD1 or cisplatin was investigated in the LLC model of non-small cell lung cancer, which is a model known to unresponsive to anti-PD1 therapy and moderately responsive to cisplatin. Yu et al., J Exp Clin Cancer Res. 2010; 29(1):46; Lechner et al., J Immunother. 2013; 36(9):477-489. A total of forty (40) C57BL/6J male mice were injected subcutaneously with 1×10e6 living LLC cells. […] In addition, bis RvE1 Mg-di-lysinate was evaluated in combination with anti-PD1 or cisplatin. […]

CC[C@@H](O)/C=C/C=C\C[C@@H](O)/C=C/C=C/C=C\[C@@H](O)CCCC(=O)O [bis RvE1 Mg-di-lysinate]
tumor volume (Day 11 vs Day 0) (bis RvE1 Mg-di-lysinate 30 ug/kg SC QD in combination with anti-PD1 8 mg/kg IP Q3D): reduced tumor volume compared to placebo and cisplatin and anti-PD1 alone | tumor volume (Day 11 vs Day 0) (bis RvE1 Mg-di-lysinate 30 ug/kg SC QD in combination with cisplatin 5 mg/kg i.p Q5D): reduced tumor volume compared to placebo and cisplatin and anti-PD1 alone
